Test results published in patent US12390505B2, “Composition for preventing or treating obesity or diabetes, comprising acanthopanax senticosus extract and garcinia cambogia extract or compound isolated therefrom” (KOREA RESEARCH INSTITUTE OF BIOSCIENCE AND BIOTECHNOLOGY, priority 2020, dated 2025).

How the values were obtained:
Type in all cases: in vivo, mouse
[1] = Example 11 HFD mice: weight change, dietary efficiency and organ weight; conditions: oral once daily 10 weeks, 50 mg/kg
Method: After adapting 8-week-old male C57b1/6 J mice to the basic diet (AIN-76A diet) for 2 weeks, and consuming Diet Induced Obesity Diet Formulas (D12451) 60 kcal % HFD diet for 2 weeks from 10 weeks of age, and then the test drug was administered when the average body weight reached 28 g or more. The animal breeding room environment of the mouse was maintained in a constant temperature (25±2° C.), constant humidity (50±5%) and a 12-hour photoperiod (light on 07:00˜19:00) in which the light and shade were controlled in an SPF environment. […] The test drug was dispersed in 0.5% Carboxymethyl cellulose (CMC) and administered in a volume of 0.2 ml, and the drug was administered orally by force into the stomach using a metal Zonde for oral administration.
Body weight and food intake were measured and recorded at regular times every week. Total weight gain: weight at the end of the experiment−weight at the start of the experiment (1) Food intake=[…] (2) Food efficiency ratio (FER)=[total weight gain/total food intake]×100 (3)
(§1) The data were analyzed using one-way ANOVA to determine a statistically significant variance between each group for each final point measured, and statistical significance between each group was determined using the nonparametric Mann-Whitney test and Dunnett's multiple comparison test (IBM SPSS statistics version 19.0 statistic software, Inc, IBM, USA).

[2] = Example 11 HFD mice: oral glucose tolerance test; conditions: oral once daily 10 weeks, 50 mg/kg
Method: After adapting 8-week-old male C57b1/6 J mice to the basic diet (AIN-76A diet) for 2 weeks, and consuming Diet Induced Obesity Diet Formulas (D12451) 60 kcal % HFD diet for 2 weeks from 10 weeks of age, and then the test drug was administered when the average body weight reached 28 g or more. The animal breeding room environment of the mouse was maintained in a constant temperature (25±2° C.), constant humidity (50±5%) and a 12-hour photoperiod (light on 07:00˜19:00) in which the light and shade were controlled in an SPF environment. […]
[…] Blood to be used for blood glucose measurement was collected from the tail vein of a mouse, and blood glucose was measured using a serum analyzer (Accutrend plus GCTL Cobas Roche, Germany).
as §1, with “Results obtained from various experiments are recorded as mean±standard error of mean (SEM), and significance verification is determined using the student's T-test analysis method. The” for “The”

PPAR-gamma mRNA = assay: Example 12 HFD mice: adipose tissue PPAR-gamma mRNA analysis; conditions: adipose tissue of HFD mice, oral once daily for 10 weeks, chiisanogenin 50 mg/kg, Garcinia cambogia extract 200 mg/kg, combination 50 + 150 mg/kg, Met 50 mg/kg
Method: The test drug was dispersed in 0.5% Carboxymethyl cellulose (CMC) and administered in a volume of 0.2 ml, and the drug was administered orally by force into the stomach using a metal Zonde for oral administration. RNA was extracted from tissues using RNAsolB (Tel-Test) solution, and cDNA and real-time PCR analysis were performed using One-step SYBR Green PCR kit (AB science). From the prepared cDNA, a FAM probe of [NT] ID NO: 16) sequence was used to amplify PPAR-gamma mRNA, and a VIC probe of [NT] ID NO: 15) sequence was used to amplify GAPDH mRNA as an intra control. Real time quantitative PCR was performed using the Applied Biosystems 7500 Real-Time PCR system (Applied Biosystems, USA). Results obtained from various experiments are recorded as mean±standard error of mean (SEM), and significance verification is determined using the student's T-test analysis method. The data were analyzed using one-way ANOVA to determine a statistically significant variance between each group for each final point measured, and statistical significance between each group was determined using the nonparametric Mann-Whitney test and Dunnett's multiple comparison test (IBM SPSS statistics version 19.0 statistic software, Inc, IBM, USA).

[3] = Example 12 HFD mice: serum test; conditions: serum of HFD mice, oral once daily for 10 weeks; chiisanogenin 50 mg/kg; Garcinia cambogia extract 200 mg/kg; combination 50 + 150 mg/kg; Met 50 mg/kg
Method: The test drug was dispersed in 0.5% Carboxymethyl cellulose (CMC) and administered in a volume of 0.2 ml, and the drug was administered orally by force into the stomach using a metal Zonde for oral administration. Blood was collected by cardiac puncture to conduct a blood biochemical test after the end of the final experiment, and then plasma was separated by centrifugation at 3,000 rpm and 4° C. for 15 minutes within 30 minutes after blood collection, and then stored at −74° C. for blood chemistry and ELISA analysis. The contents of total cholesterol, high-density lipoprotein (HDL), low-density lipoprotein (LDL), triglyceride, FFA, glucose, and LDH, which are indicators of lipid content, were measured using an automated biochemical analyzer (Hitachi-720, Hitachi Medical, Japan). IGF-1 and Creatine were diluted in coating buffer, coated on microwells, and left overnight at 4° C. […] 100 μl of the TMB substrate was dispensed, left in the dark for 30 minutes, treated with 50 μl of the stop solution, and absorbance was measured at a wavelength of 450 nm using an ELISA reader. Results obtained from various experiments are recorded as mean±standard error of mean (SEM), and significance verification is determined using the student's T-test analysis method. […]

**Q.** Which results are given for CN(C)C(=N)N=C(N)N [Met, Metformin]?
**A.** Final weight [1]: 38.6 ± 0.93 g; Food intakes [1]: 2.24 g/day; Inhibition Rate (FER) [1]: 41%; Inhibition Rate (final weight) [1]: 43%; Inhibition Rate (weight gain) [1]: 51%; Kidney weight [1]: 0.31 ± 0.01 g; Spleen weight [1]: 0.10 ± 0.00 g; Weight gain [1]: 15.3 ± 0.82 g; Inhibition Rate (OGTT) [2]: 23%; OGTT (30 min-0 min, mg/dL) ([2]; glucose 1 g/kg): 148 ± 18.50^ mg/dL; PPAR-γ mRNA Inhibition Rate (%) (PPAR-gamma mRNA): 80%; PPAR-γ mRNA, mean ± standard error (PPAR-gamma mRNA; real-time PCR vs GAPDH): 1.235 ± 0.42; Creatin (mg/dL), mean ± standard error [3]: 0.564 ± 0.011 mg/dL
